Reference: US8349801B2, “Peptide ligands for G-protein coupled receptors” (priority 2006, dated 2013)
No end group written: not given here.

Test system: aortic rings from Wistar rat
Test: Vasorelaxant activity in phenylephrine pre-contracted aortic rings
Excerpt: Male Wistar rats of the age of 13-14 weeks (body weight: 250 to 300 g) were used. The rats were exposed to light-dark cycle of 12 hs (day—06:00 to 18:00; night—18:00 to 06:00) controlled by timer. Rats were killed by decapitation and exsanguination and tissues were rapidly removed.
Rings (3-4 mm) from the descending thoracic aorta, free of adipose and connective tissue, were set up in gassed (95% O2 and 5% CO2) Krebs-Henseleit solution (mmol/L): NaCl 110.8, KCl 5.9, NaHCO3 25.0, MgSO4 1.07, CaCl2 2.49, NaH2PO4 2.33 and glucose 11.51, at 37° C., under a tension of 1.0 g, for 1 hour to equilibrate. The presence of functional endothelium was assessed by the ability of Acetylcholine (1 μM) to induce more than 70% relaxation of vessels pre-contracted with phenylephrine (0.3 μM) (Lemos et al., 2005). When necessary, the endothelium was removed by rubbing the intimal surface with a wooden stick. Mechanical activity, recorded isometrically by a force transducer (Panlab, model number TR1210, Spain), was fed to an amplifier-recorder (Powerlab 4/20, ADInstruments, Inc.) and to a personal computer equipped with an analogue-to-digital converter board (AD16JR; World Precision Instruments, Inc.), using CVMS data acquisition/recording software (World Precision Instruments, Inc.).
The vasorelaxant activity of peptides —P61_S (SEQ ID NO:10), P61 (SEQ ID NO.9)-dimer (P61_D), P33_V (SEQ ID NO:7) and P33 (SEQ ID NO:6)-dimer (P33_D) were measured in vessels (N=5-8) with or without functional endothelium pre-contracted to the same tension level (approximately 1.5 g of tension) induced by submaximal concentrations of phenylephrine (0.01 μM). For comparison, the effect of Ang-(1-7) was also tested (N=4)
P61_S (SEQ ID NO:10), P61 (SEQ ID NO9)-dimer (P61_D), P33_V (SEQ ID NO:7) or P33 (SEQ ID NO:6)-dimer (P33_D) were added in increasing cumulative concentrations (0.0001 to 1 μM) once the response to phenylephrine had stabilized (FIG. 28). In order to verify the participation of endothelium-derived products in the relaxant effect of peptides, experiments were performed in the presence of 100 μM N′-Nitro-L-Arginine Methyl Ester-[L-NAME]—a nonselective inhibitor of nitric oxide synthase. In experiments performed in the presence of L-NAME, vessels were pre-contracted with 0.03 μM of phenylephrine, to achieve the same tension level as the others. L-NAME was added to the bath 20 min prior to the addition of phenylephrine.
Results are presented as mean±SEM. Two-way analysis of variance (ANOVA) with Bonferroni multiple comparison post-test was used to compare concentration response curves obtained in aortic rings. The vasodilator effect of P61_S (SEQ ID NO:10), P61 (SEQ ID N09)-dimer (P61_D), P33_V (SEQ ID NO:7), P33 (SEQ ID NO:6)-dimer (P33_D) and Ang-(1-7) were expressed as percentage decrease in maximal contraction induced by phenylephrine. All statistical analyses were considered significant when p<0.05.

FLGYCIYLNRKRRGDPAFKRRLRD (also: dimer via cysteine; listed as Homo sapiens) [Peptide P61_dimer]
vasodilator effect in the presence of L-NAME (100 μM L-NAME, NO synthase inhibitor): markedly inhibited
vasodilator effect in the absence of functional endothelium (endothelium-denuded vessels): abolished
Maximal values for the relaxant effect (Emax) (vessels with endothelium, 0.0001 to 1 μM cumulative, mean±SEM): 20.45±5.11%
